Results as given in PubChem BioAssay (NCI).
“And” between values parts separate entries of the source, which are not always exact repeats. Equal entries are not always repeated.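 Protocol summary: plate cells (96-well), add compound at 5 concentrations, incubate 48 h, interpolate endpoints linearly. Abbreviation: GI50, concentration required for 50% inhibition of growth. The concentration for full growth arrest is given as TGI.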 Where a SMILES comes first, the peptide text is derived from it. The star is where a group is joined. Boc = CC(C)(C)OC(=O)*

The compounds below were run on COLO 205 colon (assay: DTP human tumour cell line panel, 48 h).
`Cc1cc2cc3c(=O)[nH]c(=O)[nH]c3nc2cc1C` gave a TGI greater than 100 µM. For `[N-]=[N+]=N/C1=C/CCCCC(=O)C1`, the TGI was greater than 100 µM. In the case of `O=C(O)c1ccc(C(=O)O)c2c(C(=O)O)ccc(C(=O)O)c12`, the TGI is reported as greater than 100 µM. With `Cc1cc(N(CCCNc2ccnc3cc(Cl)ccc23)Cc2ccc3c(c2)OCO3)nc(N2CCOCC2)n1` the GI50 was 0.269 µM and the TGI was 0.802 µM. With `O=C(/C=C/C=C/c1ccccc1)c1ccccc1` the TGI was 31.5 µM. Work on `CCOC(=O)C1SC(=Nc2ccccc2)N=C1C` (stereo not drawn) yielded a TGI greater than 100 µM. Compound `C=CCN1CCC23c4c5ccc(O)c4OC2C(=NN=C2CCC4(O)C6Cc7ccc(O)c8c7C4(CCN6CC=C)C2O8)CCC3(O)C1C5` (stereo not drawn) has a TGI of 42.1 µM. For `CN(C)CCNC(=O)c1cccc2c(Nc3ccc(S(=O)(=O)N=C(N)N)cc3)c3ccccc3nc12`, the TGI was 32.2 µM. `COC(=O)c1ccc(-c2c(C#N)[n+](=O)c3cc(Cl)c(Cl)cc3n2[O-])cc1` gave a GI50 of 22 µM and a TGI of 52.1 µM. `COC(=O)C(C)NC(=O)C(CCSC)NC(=O)C(Cc1ccccc1)NC(=O)OC(C)(C)C` (stereo not drawn) (Boc-Phe-Met-Ala-OMe; configuration not given here) was tested, and the GI50 was 24.2 µg/mL and the TGI was 47.4 µg/mL and > 100 µM. In the case of `C/C(=N\NC(=S)N1CCCCCC1)c1ccccn1`, the TGI is reported as 0.0286 µM. Compound `CC(C)=CCc1cc2c(cc1O)OC[C@H]1c3cc4c(cc3O[C@@H]21)OCO4` has a TGI greater than 100 µM. Work on `COc1ccc(Cn2c(N)c(S(=O)(=O)c3ccc(Cl)cc3)c3nc(C#N)c(C#N)nc32)cc1` yielded a GI50 greater than 50 µM and a TGI greater than 50 µM.

What follows are compounds tested on SF-295 CNS (assay: DTP human tumour cell line panel, 48 h).
Work on `Cn1c(Nc2ccc(C(F)(F)F)cc2)nc2cc(Oc3ccnc(-c4ncc(C(F)(F)F)[nH]4)c3)ccc21` yielded a GI50 of 0.402 µM and a TGI of 11.8 µM. `C[C@@]12CCC[C@@](C)(C(=O)O)C1CC[C@]13CC(=O)[C@](CO)(C1)[C@@H](O)CC32` (stereo partly drawn) gave a GI50 greater than 100 µM and a TGI greater than 100 µM. For `CN(C)C/C=C/C(=O)Nc1cc2c(Nc3ccc(F)c(Cl)c3)ncnc2cc1O[C@H]1CCOC1`, the GI50 was 4.93 µM and 3.32 µM and the TGI was 20.9 µM and > 10 µM. In the case of `Cn1cnnc1Sc1c([N+](=O)[O-])ncn1C`, the TGI is reported as greater than 100 µM. `C=CCC1(CN(C)C)CC/C(=C\c2ccc(Cl)cc2)C1=O` (stereo not drawn) showed a TGI greater than 85.3 µM. Compound `COC(=O)c1cc2c(s1)-c1nccc3c1c(nc1ccccc13)C2=O` has a GI50 greater than 100 µM and a TGI greater than 100 µM. Compound `C[Si](C)(C)/C(I)=C/CO` has a TGI of 58.3 µM. In the case of `Oc1ccc(Nc2c3ccccc3nc3occ(Cl)c23)cc1`, the GI50 is reported as 4.65 µM and the TGI is reported as greater than 100 µM. Compound `CCCCCCCN=C(N)c1ccc(N2CCN(c3ccc(C(N)=NCCCCCCC)cc3)CC2)cc1` has a GI50 of 0.0628 µM and a TGI of 0.28 µM. For `C[Si](C)(C)/C(Br)=C\CCN1C(=O)CCC1=O`, the TGI was greater than 100 µM. `Cc1ccc(S(=O)OCc2c(C)c(C)c(COS(=O)c3ccc(C)cc3)c(C)c2C)cc1` (stereo not drawn) gave a TGI greater than 100 µM. With `C[C@]12CCC(=O)C=C1CC[C@@H]1C2CC[C@]2(C)Nc3[nH]ncc3CC12` (stereo partly drawn) the TGI was greater than 100 µM. For `CCOC(=O)/C=C/c1ccc(C#Cc2ccccc2)cc1`, the GI50 was 55.1 µM and the TGI was greater than 100 µM. `O=[P@@]1(c2ccccc2)O[C@H](COCc2ccccc2)[C@@H](OCc2ccccc2)[C@H](OCc2ccccc2)[C@H]1NCc1ccccc1` gave a GI50 of 2.05 µM and a TGI of 6.68 µM. Compound `C[C@H]1CN[C@@H]2[C@@H](C)[C@H]3[C@@H](C[C@H]4[C@@H]5CC[C@H]6C[C@@H](N)CC[C@]6(C)[C@H]5CC[C@]34C)O[C@@]2(O)C1` has a TGI of 10.3 µM. `CSc1ccccc1C#C/C=C\C#Cc1ccccc1N` was tested, and the GI50 was 1.83 µM and the TGI was 5.55 µM. `COc1ccc(/C(=C\C=C(C#N)C#N)Sc2nc3ccccc3s2)cc1` showed a GI50 of 13.6 µM and a TGI of 39.9 µM. `CCN(CC)CCSc1c2ccccc2nc2c(OC)ccc(OC)c12` showed a TGI of 59.4 µM. Compound `Cc1cc2cc3c(=O)[nH]c(=O)[nH]c3nc2cc1C` has a TGI greater than 100 µM. For `CC(C)OC(=O)[C@H](C)NP(=O)(OC[C@H]1O[C@@H](n2ccc(=O)[nH]c2=O)[C@](C)(F)[C@@H]1O)Oc1ccccc1` (stereo partly drawn), the GI50 was greater than 100 µM and the TGI was greater than 100 µM. `O=C(O)c1ccc(C(=O)O)c2c(C(=O)O)ccc(C(=O)O)c12` was tested, and the TGI was greater than 100 µM. In the case of `CCOC(=O)C1SC(=Nc2ccccc2)N=C1C` (stereo not drawn), the TGI is reported as greater than 100 µM. For `C=CCN1CCC23c4c5ccc(O)c4OC2C(=NN=C2CCC4(O)C6Cc7ccc(O)c8c7C4(CCN6CC=C)C2O8)CCC3(O)C1C5` (stereo not drawn), the TGI was 40.9 µM. With `CN(C)CCNC(=O)c1cccc2c(Nc3ccc(S(=O)(=O)N=C(N)N)cc3)c3ccccc3nc12` the TGI was 75.2 µM. For `COC(=O)c1ccc(-c2c(C#N)[n+](=O)c3cc(Cl)c(Cl)cc3n2[O-])cc1`, the GI50 was 12.5 µM and the TGI was 33.7 µM. In the case of `COC(=O)C(C)NC(=O)C(CCSC)NC(=O)C(Cc1ccccc1)NC(=O)OC(C)(C)C` (stereo not drawn) (Boc-Phe-Met-Ala-OMe; configuration not given here), the TGI is reported as greater than 100 µM. Work on `C/C(=N\NC(=S)N1CCCCCC1)c1ccccn1` yielded a GI50 of 0.0137 µM and a TGI of 2.3 µM. Compound `CC(C)=CCc1cc2c(cc1O)OC[C@H]1c3cc4c(cc3O[C@@H]21)OCO4` has a TGI greater than 100 µM. Compound `COc1ccc(Cn2c(N)c(S(=O)(=O)c3ccc(Cl)cc3)c3nc(C#N)c(C#N)nc32)cc1` has a GI50 of 10.8 µM and a TGI greater than 50 µM.

What follows are compounds tested on U251 CNS (assay: DTP human tumour cell line panel, 48 h).
Work on `Cn1c(Nc2ccc(C(F)(F)F)cc2)nc2cc(Oc3ccnc(-c4ncc(C(F)(F)F)[nH]4)c3)ccc21` yielded a GI50 of 0.154 µM and a TGI of 12.9 µM. `C[C@@]12CCC[C@@](C)(C(=O)O)C1CC[C@]13CC(=O)[C@](CO)(C1)[C@@H](O)CC32` (stereo partly drawn) gave a GI50 greater than 100 µM and a TGI greater than 100 µM. For `CN(C)C/C=C/C(=O)Nc1cc2c(Nc3ccc(F)c(Cl)c3)ncnc2cc1O[C@H]1CCOC1`, the GI50 was 0.58 µM and 1.35 µM and the TGI was 2.96 µM and > 10 µM. With `Cn1cnnc1Sc1c([N+](=O)[O-])ncn1C` the TGI was greater than 100 µM. `C=CCC1(CN(C)C)CC/C(=C\c2ccc(Cl)cc2)C1=O` (stereo not drawn) was tested, and the TGI was greater than 100 µM. With `COC(=O)c1cc2c(s1)-c1nccc3c1c(nc1ccccc13)C2=O` the GI50 was 50.6 µM and the TGI was greater than 100 µM. With `C[Si](C)(C)/C(I)=C/CO` the TGI was 36.7 µM. With `Oc1ccc(Nc2c3ccccc3nc3occ(Cl)c23)cc1` the GI50 was 5.63 µM and the TGI was greater than 100 µM. `CCCCCCCN=C(N)c1ccc(N2CCN(c3ccc(C(N)=NCCCCCCC)cc3)CC2)cc1` showed a GI50 of 1.45 µM and a TGI of 9.34 µM. In the case of `C[Si](C)(C)/C(Br)=C\CCN1C(=O)CCC1=O`, the TGI is reported as greater than 100 µM. `Cc1ccc(S(=O)OCc2c(C)c(C)c(COS(=O)c3ccc(C)cc3)c(C)c2C)cc1` (stereo not drawn) was tested, and the TGI was greater than 100 µM. `C[C@]12CCC(=O)C=C1CC[C@@H]1C2CC[C@]2(C)Nc3[nH]ncc3CC12` (stereo partly drawn) was tested, and the TGI was greater than 100 µM. In the case of `CCOC(=O)/C=C/c1ccc(C#Cc2ccccc2)cc1`, the GI50 is reported as greater than 100 µM and the TGI is reported as greater than 100 µM. `O=[P@@]1(c2ccccc2)O[C@H](COCc2ccccc2)[C@@H](OCc2ccccc2)[C@H](OCc2ccccc2)[C@H]1NCc1ccccc1` showed a GI50 of 2.97 µM and a TGI greater than 100 µM. Compound `C[C@H]1CN[C@@H]2[C@@H](C)[C@H]3[C@@H](C[C@H]4[C@@H]5CC[C@H]6C[C@@H](N)CC[C@]6(C)[C@H]5CC[C@]34C)O[C@@]2(O)C1` has a TGI of 4.9 µM. With `CSc1ccccc1C#C/C=C\C#Cc1ccccc1N` the GI50 was 10.3 µM and the TGI was 55.3 µM. In the case of `COc1ccc(/C(=C\C=C(C#N)C#N)Sc2nc3ccccc3s2)cc1`, the GI50 is reported as 3.39 µM and the TGI is reported as 11 µM. `CCN(CC)CCSc1c2ccccc2nc2c(OC)ccc(OC)c12` gave a TGI of 49.4 µM. With `CCOC(=O)c1ccc(N=Nc2cc(C(=O)OCC)ccc2O)cc1` the TGI was greater than 100 µM. In the case of `Cc1cc2cc3c(=O)[nH]c(=O)[nH]c3nc2cc1C`, the TGI is reported as greater than 100 µM. `CC(C)OC(=O)[C@H](C)NP(=O)(OC[C@H]1O[C@@H](n2ccc(=O)[nH]c2=O)[C@](C)(F)[C@@H]1O)Oc1ccccc1` (stereo partly drawn) showed a GI50 greater than 100 µM and a TGI greater than 100 µM. For `O=C(O)c1ccc(C(=O)O)c2c(C(=O)O)ccc(C(=O)O)c12`, the TGI was greater than 100 µM. With `Cc1cc(N(CCCNc2ccnc3cc(Cl)ccc23)Cc2ccc3c(c2)OCO3)nc(N2CCOCC2)n1` the GI50 was 0.323 µM and the TGI was 3.18 µM. `O=C(/C=C/C=C/c1ccccc1)c1ccccc1` gave a TGI of 27 µM. `CCOC(=O)C1SC(=Nc2ccccc2)N=C1C` (stereo not drawn) was tested, and the TGI was greater than 100 µM. With `C=CCN1CCC23c4c5ccc(O)c4OC2C(=NN=C2CCC4(O)C6Cc7ccc(O)c8c7C4(CCN6CC=C)C2O8)CCC3(O)C1C5` (stereo not drawn) the TGI was 34.9 µM. With `CN(C)CCNC(=O)c1cccc2c(Nc3ccc(S(=O)(=O)N=C(N)N)cc3)c3ccccc3nc12` the TGI was 67 µM. In the case of `COC(=O)c1ccc(-c2c(C#N)[n+](=O)c3cc(Cl)c(Cl)cc3n2[O-])cc1`, the GI50 is reported as 16.7 µM and the TGI is reported as 44.9 µM. In the case of `COC(=O)C(C)NC(=O)C(CCSC)NC(=O)C(Cc1ccccc1)NC(=O)OC(C)(C)C` (stereo not drawn) (Boc-Phe-Met-Ala-OMe; configuration not given here), the GI50 is reported as 22.6 µg/mL and the TGI is reported as 67 µg/mL and > 100 µM. In the case of `C/C(=N\NC(=S)N1CCCCCC1)c1ccccn1`, the GI50 is reported as less than 0.0131 µM and the TGI is reported as 1.24 µM and 1.29 µM. Work on `CC(C)=CCc1cc2c(cc1O)OC[C@H]1c3cc4c(cc3O[C@@H]21)OCO4` yielded a TGI greater than 100 µM. With `COc1ccc(Cn2c(N)c(S(=O)(=O)c3ccc(Cl)cc3)c3nc(C#N)c(C#N)nc32)cc1` the GI50 was 10.1 µM and the TGI was 30.3 µM.
